Test results as given in publication PMC9841525, “Chemical Blockage of the Mitochondrial Rhomboid Protease PARL by Novel Ketoamide Inhibitors Reveals Its Role in PINK1/Parkin-Dependent Mitophagy” (Journal of Medicinal Chemistry, 2022).
*1 amine or outer side, *2 acyl side, *3 side chain or, on linkers, in order; H or OH if unused. Where a SMILES comes first, the peptide text is derived from it. [ ]: non-standard residue; d: D form. The star is where a group is joined. NH(4-phenylbutyl) = c1ccc(CCCCN*)cc1; X1 = C[C@H](N[*:1])C(=O)C(=O)[*:2]

Columns and labels:
PINK1 [1] = assay: PINK1 processing in HEK293 T-REx cells overexpressing PINK1, immunoblot; format: cell-based, human; conditions: HEK293 T-REx cells overexpressing PINK1, 8 h
Method: (§1) Inducible stable Flp-In HEK293 T-REx cells expressing PINK1 were described previously.[33] HEK293 T-REx PINK1 and HEK293T cells were grown in DMEM (Gibco) supplemented with 10% (v/v) fetal bovine serum (ThermoFisher), 1% (v/v) GlutaMAX (Gibco), 1% (v/v) sodium pyruvate (Gibco), 125 μg/mL hygromycin (Invitrogen), and 10 μg/mL blasticidin (Gibco) or DMEM supplemented with 10% (v/v) fetal bovine serum, respectively, at 37 °C in 5% (v/v) CO2. For microscopy, cells were seeded on poly-L-lysine (Sigma)-coated slides. Transient plasmid transfections were performed using 25 kDa linear polyethylenimine (Polysciences). Plasmid (100 ng) encoding HA-Parkin-IRES-GFP, mito-mCherry or Parkin-mEGFP, or 500 ng plasmid encoding PGAM5-FLAG were used per 6-well. Total transfected DNA was 2 μg/well. For siRNA transfection, 2 × 10^5 cells were seeded per 6-well and on the next day transfected with 20 nM siRNA-oligonucleotide using lipofectamine RNAiMAX (ThermoFisher). Cells were analyzed 27 h post-transfection or five days post-siRNA-transfection. HEK293 T-REx PINK1 cells were induced with 0.3 μg/mL doxycycline for 24 h before further processing. […] For quantification, ImageJ was used (http://rsb.info.nih.gov/ij/). Immunoblots shown are representative of at least three independent experiments and were evaluated using Excel and GraphPad Prism 9 (GraphPad Software, Inc.).

PINK1 [2] = assay: PINK1 processing and stabilization, endogenous PINK1, sodium carbonate fractionation and immunoblot; format: cell-based, human; conditions: HEK293T cells, 5 μM, 8 h
Method: as §1

For `CC(=O)N[C@@H](C)C(=O)N[C@H](C(=O)N[C@@H](Cc1ccccc1)C(=O)N[C@@H](CC(C)C)C(=O)N[C@@H](C)C(=O)C(=O)NCCCCc1ccccc1)C(C)C` [compound 5] (Ac-AVFL[X1]-{NH(4-phenylbutyl)}), which “Effect on cleavage and stabilization of overexpressed PINK1” value (PINK1 [1]) is on record?
Its value is “dose-dependent stabilization of PINK1–66”.

And the “Effect on cleavage and stabilization of overexpressed PINK1” value (PINK1 [1]; listed as Compound 5)?
The value was “inhibits the PARL-cleavage of overexpressed PINK1 in a dose-dependent manner”.

And the “Effect on endogenous PINK1 cleavage and stabilization” value (PINK1 [2])?
The value was “endogenous PINK1 remains largely uncleaved and is stabilized in its 66 kDa form”.

And the “Effect on endogenous PINK1 cleavage and stabilization” value (PINK1 [2]; listed as Compound 5)?
Its value is “inhibits PARL-catalyzed PINK1 cleavage under endogenous expression levels”.
